Source: BindingDB's records for doi:10.1021/jm00011a006 (University of Minnesota, 1995)

What follows are compounds tested against Aldehyde dehydrogenase (Saccharomyces cerevisiae) (assay: In vitro inhibition against yeast Aldehyde dehydrogenase).
Compound `CCOC(=O)On1nnc2ccccc21` [Carbonic acid benzotriazol-1-yl ester ethyl ester] has an IC50 of 270 µM. `CCOC(=O)ON1C(=O)c2ccccc2S1(=O)=O` [Carbonic acid ethyl ester 1,1,3-trioxo-1,3-dihydro-1lambda*6*-benzo[d]isothiazol-2-yl ester] was tested, and the IC50 was 56 µM. Work on `CCOC(=O)ON(C(=O)OCC)S(=O)(=O)c1ccc(Cl)cc1` [ethyl (4-chlorophenyl)sulfonyl[(ethoxycarbonyl)oxy]carbamate] yielded an IC50 of 24 µM.
